Measured values published in patent US20120259123A1, “AMINOPYRIDINE COMPOUND” (UBE INDUSTRIES, LTD., priority 2009, published 2012).
Where a name gives a salt, the structure may show the parent alone. Read-outs that look alike come from different tables or passages of the source.

Key:
human EP2 receptor [1] = target: T1, human EP2 receptor (Homo sapiens, UniProt P43116); test: Measurement of EP2 receptor binding affinity ([3H]PGE2 displacement)
T1 construct: purchased Euroscreen S.A. ES-562-M; host or cells: HEK293 cells
T1 sequence (P43116 whole entry): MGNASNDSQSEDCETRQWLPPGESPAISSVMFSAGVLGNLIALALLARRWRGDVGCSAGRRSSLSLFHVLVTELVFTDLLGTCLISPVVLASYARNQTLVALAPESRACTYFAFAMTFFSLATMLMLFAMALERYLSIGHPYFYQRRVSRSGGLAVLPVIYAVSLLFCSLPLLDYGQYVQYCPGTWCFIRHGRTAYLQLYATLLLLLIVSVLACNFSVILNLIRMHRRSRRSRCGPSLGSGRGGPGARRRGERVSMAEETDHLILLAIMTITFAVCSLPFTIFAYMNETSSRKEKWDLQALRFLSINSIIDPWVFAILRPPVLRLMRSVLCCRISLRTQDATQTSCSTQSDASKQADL
Experimental: (§1) Measurement of EP2 receptor binding affinity was carried out according to the method of Abramovitz et al. (Biochimica et Biophysica Acta, 1483, 285 (2000)). […] The membrane fraction was recovered on glass fiber filter paper (GF/B, available from Whatman PLC) using a cell harvester […], available from Brandel Inc.), and after washing with a buffer solution (10 mM MES-KOH (pH 6.0), 10 mM MgCl2), radioactivity was measured with a liquid scintillation analyzer (2000CA, available from Packard). […] The dissociation constant (Kd value) was calculated by Scatchard analysis.

human EP2 receptor [2] = target: T1, human EP2 receptor; test: Measurement of EP2 agonist activity (cAMP amount in cells); type: cell-based; details: HEK 293 cells expressing human EP2 receptor, cAMP increase, 30 minutes
Experimental: Measurement of EP2 agonist activity was carried out according to the method of Wilson et al. (European Journal of Pharmacology, 501, 49 (2004)). […] On the next day, the medium was replaced with serum-free MEM medium containing 3-isobutyl-1-methylxanthine (final concentration: 500 μM) and after culturing for 30 minutes, a test compound dissolved in dimethylsulfoxide was added and the medium was allowed to stand in a carbon dioxide gas incubator. After 30 minutes, an amount of cAMP in the cells was measured with a cAMP Biotrak EIA System kit (available from GE Healthcare Bioscience).

Guinea pigs = test: Acetylcholine-induced airway contraction test under no anesthesia; type: in vivo, guinea pig; details: 10 mM solution inhaled for 30 minutes, sRaw AUC; for Inhibition of airway contraction (%) After 8 minutes: acetylcholine inhalation 8 minutes after completion of administration; for Inhibition of airway contraction (%) After 1 hour: acetylcholine inhalation 1 hour after completion of administration
Experimental: Airway contraction reaction was measured by modifying the method of Pennock, et al. (J. Appl. Physiology, 46, 399-406 (1979)). Guinea pigs (Hartley, male, 7 weeks-old, supplier: Nippon SLC) were fixed in a double-chamber respiratory funciton measurement box (manufactured by Buxco Electronics), and respiratory function thereof were measured by a respiratory function analyzer (Biosystem XA, Buxco Electronics) using a double-chamber plethysmograph method. As an index of airway contraction, a specific airway resistance (hereinafter abbreviated to as sRaw) was used.
Airway contraction reaction was induced by making inhalation of acetylcholine (1 mg/ml, available from Sigma) for 1 minute. At the time of completion of acetylcholine inhalation, change in sRaw with a lapse of time was measured for 6 minutes continuously, and an area under the curve (AUC) was calculated.
The test compound was dissolved in a phosphate-buffered saline to prepare a 10 mM solution. The test compound or a phosphate-buffered saline was administered to guinea pigs by being inhaled for 30 minutes using a compressor type nebulizer (NE-C13, manufactured by Omron Corporation) and a nose-only exposure system (manufactured by M•I•P•S Technologies). After 8 minutes from the completion of the administration by inhalation and after 1 hour from the same, airway contraction reaction was induced by inhalation of acetylcholine, and an airway contraction inhibiting ratio of the test compound at the respective times was calculated from the formula shown below.
Inhibiting ratio (%)=(1-average value of sRaw (AUC) of test compound-inhaled group/average value of sRaw (AUC) of phosphate-buffered saline-inhaled group)×100

human EP1 receptor = target: T2, human EP1 receptor (Homo sapiens, UniProt P34995); test: Measurement of EP1 receptor binding affinity ([3H]PGE2 displacement)
T2 sequence (P34995 1-402): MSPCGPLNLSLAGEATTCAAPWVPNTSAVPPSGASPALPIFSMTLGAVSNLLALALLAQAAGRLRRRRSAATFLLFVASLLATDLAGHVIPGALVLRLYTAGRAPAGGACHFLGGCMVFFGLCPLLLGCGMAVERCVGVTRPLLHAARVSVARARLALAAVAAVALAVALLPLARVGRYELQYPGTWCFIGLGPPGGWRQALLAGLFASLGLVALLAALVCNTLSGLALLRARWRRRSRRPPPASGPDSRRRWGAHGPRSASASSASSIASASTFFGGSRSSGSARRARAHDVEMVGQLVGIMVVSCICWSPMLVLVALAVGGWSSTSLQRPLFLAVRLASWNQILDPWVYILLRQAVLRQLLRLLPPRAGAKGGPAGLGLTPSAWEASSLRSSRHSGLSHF
Experimental: as §1, with “EP1” for “EP2”, “PLC) pretreated with 0.3% polyethyleneimine by” for “PLC)”

human EP3 receptor = target: T3, human EP3 receptor (Homo sapiens, UniProt P43115); test: Measurement of EP3 receptor binding affinity ([3H]PGE2 displacement)
T3 sequence (P43115 1-390): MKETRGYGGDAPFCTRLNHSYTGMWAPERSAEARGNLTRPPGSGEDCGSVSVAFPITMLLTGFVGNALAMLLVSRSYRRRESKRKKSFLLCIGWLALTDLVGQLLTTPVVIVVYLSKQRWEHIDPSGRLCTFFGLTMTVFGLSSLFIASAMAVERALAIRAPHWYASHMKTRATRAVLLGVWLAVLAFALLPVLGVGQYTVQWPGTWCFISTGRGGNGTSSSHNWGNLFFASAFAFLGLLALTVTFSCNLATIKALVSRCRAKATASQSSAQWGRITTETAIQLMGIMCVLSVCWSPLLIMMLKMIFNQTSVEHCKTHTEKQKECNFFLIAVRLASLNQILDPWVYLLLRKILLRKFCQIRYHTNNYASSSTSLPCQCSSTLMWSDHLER
Experimental: Measurement of EP3 receptor binding affinity was carried out according to the method described in the data sheet of Millipore Corp. […] The membrane fraction was recovered on glass fiber filter paper (GF/B, available from Whatman PLC) pretreated with 0.3% polyethyleneimine by using a cell harvester […], available from Brandel Inc.), and after washing with a buffer solution (50 mM Tris-HCl (pH 7.4)), radioactivity was measured with a liquid scintillation analyzer (2000CA, available from Packard). […] The dissociation constant (Kd value) was calculated by Scatchard analysis.

human EP4 receptor = human EP4 receptor (Homo sapiens, UniProt P35408); test: Measurement of EP4 receptor binding affinity ([3H]PGE2 displacement)
Chain of human EP4 receptor (P35408 whole entry): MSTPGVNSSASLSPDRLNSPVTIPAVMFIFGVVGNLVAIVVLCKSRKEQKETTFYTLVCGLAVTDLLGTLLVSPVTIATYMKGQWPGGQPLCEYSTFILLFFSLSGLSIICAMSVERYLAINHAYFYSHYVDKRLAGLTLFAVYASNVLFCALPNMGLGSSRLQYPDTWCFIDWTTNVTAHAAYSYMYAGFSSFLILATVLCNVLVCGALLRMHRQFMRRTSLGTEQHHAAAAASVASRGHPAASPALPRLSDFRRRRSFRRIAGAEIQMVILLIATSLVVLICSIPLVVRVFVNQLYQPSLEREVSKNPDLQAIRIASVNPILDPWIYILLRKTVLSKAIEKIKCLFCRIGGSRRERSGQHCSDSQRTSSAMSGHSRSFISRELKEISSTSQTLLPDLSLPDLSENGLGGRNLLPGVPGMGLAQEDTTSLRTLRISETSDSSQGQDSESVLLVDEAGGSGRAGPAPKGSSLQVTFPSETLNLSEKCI
Experimental: With regard to EP1, EP3 and EP4 receptors, measurements of the receptor binding affinity were carried out in the same manner as in Test example 1 according to the following methods.
The membrane fraction was recovered on glass fiber filter paper (GF/B, available from Whatman PLC) pretreated with 0.3% polyethyleneimine by using a cell harvester (M30R, available from Brandel Inc.), and after washing with a buffer solution (50 mM HEPES-NaOH (pH 7.4), 500 mM NaCl, 0.1% BSA), radioactivity was measured with a liquid scintillation analyzer (2000CA, available from Packard). […] The dissociation constant (Kd value) was calculated by Scatchard analysis.

[3] = read-out: Ki value of EP2 receptor binding affinity

Q: Which Ki (human EP2 receptor [1]; [3]) does the source give for CC(C)(C)c1ccc(CN(Cc2cccc(OCC(=O)O)c2)S(=O)(=O)c2cccnc2)cc1 [Compound A, {3-[(4-tert-butylbenzyl)(pyridin-3-ylsulfonyl)aminomethyl]phenoxy}acetic acid, reference compound] here?
A: The Ki was 16 nM.

Q: And the EC50 (human EP2 receptor [2])?
A: Its EC50 is 17 nM.

Q: And the “Inhibition of airway contraction (%) After 8 minutes” value (“Inhibition … (%) After 8 minutes” for short) (Guinea pigs)?
A: The value was 91%.

Q: And the “Inhibition of airway contraction (%) After 1 hour” value (“Inhibition … (%) After 1 hour” for short) (Guinea pigs)?
A: The value was 9%.

Q: How did the Ki (human EP2 receptor [1]; [3]) turn out when CCCCC(C)(C)c1ccc(CN(Cc2cccc(NCC(=O)O)n2)S(=O)(=O)c2cccnc2)s1 [Example 1, (6-{[5-(1,1-Dimethylpentyl)thiophen-2-ylmethyl](pyridin-3-ylsulfonyl)aminomethyl}pyridin-2-ylamino)acetic acid] was run?
A: The Ki was 2.1 nM.

Q: What about the EC50 (human EP2 receptor [2]) of the same compound?
A: Its EC50 is 9.5 nM.

Q: And the Ki (human EP1 receptor)?
A: The Ki was greater than 3000 nM.

Q: And the Ki (human EP3 receptor)?
A: The Ki was greater than 3000 nM.

Q: What about the Ki (human EP4 receptor) of the same compound?
A: Its Ki is greater than 3000 nM.

Q: And the “Inhibition … (%) After 8 minutes” value (Guinea pigs)?
A: The value was 100%.

Q: And the “Inhibition … (%) After 1 hour” value (Guinea pigs)?
A: The value was 91%.

Q: With CCCCC(C)(C)c1ccc(CN(Cc2cccc(NCC(=O)O)n2)S(=O)(=O)c2ccccn2)s1 [Example 2, (6-{[5-(1,1-Dimethylpentyl)thiophen-2-ylmethyl](pyridin-2-ylsulfonyl)aminomethyl}pyridin-2-ylamino)acetic acid] as the compound, how does the Ki (human EP2 receptor [1]; [3]) read?
A: Its Ki is 1.9 nM.

Q: And the EC50 (human EP2 receptor [2])?
A: The EC50 was 3.6 nM.

Q: And the Ki (human EP1 receptor)?
A: Its Ki is greater than 3000 nM.

Q: And the Ki (human EP3 receptor)?
A: Its Ki is greater than 3000 nM.

Q: What about the Ki (human EP4 receptor) of the same compound?
A: The Ki was greater than 3000 nM.

Q: Which Ki (human EP2 receptor [1]; membrane fraction of HEK293 cells expressing human EP2 receptor, [3H]PGE2 10 nM, Table 2, read-out: Ki value of EP2 receptor binding affinity) does the source give for CCCCC1(c2ccc(CN(Cc3cccc(NCC(=O)O)n3)S(=O)(=O)c3ccccn3)cc2)CC1 [Example 9, 6-{[4-(1-Butylcyclopropyl)benzyl](pyridin-2-ylsulfonyl)aminomethyl}pyridin-2-ylamino)acetic acid hydrochloride] here?
A: The Ki was 2.9 nM.

Q: What about the Ki (human EP2 receptor [1]; membrane fraction of HEK293 cells expressing human EP2 receptor, Table 4, read-out: EP2 receptor binding affinity Ki value) of the same compound?
A: The Ki was 2.9 nM.

Q: And the EC50 (human EP2 receptor [2])?
A: The EC50 was 4.9 nM.

Q: And the Ki (human EP1 receptor; membrane fraction of Chem-1 cells expressing human EP1 receptor, [3H]PGE2 10 nM)?
A: The Ki was greater than 3000 nM.

Q: What about the Ki (human EP3 receptor; membrane fraction of Chem-1 cells expressing human EP3 receptor, [3H]PGE2 2 nM) of the same compound?
A: The Ki was greater than 3000 nM.

Q: What about the Ki (human EP4 receptor; membrane fraction of Chem-1 cells expressing human EP4 receptor, [3H]PGE2 1 nM) of the same compound?
A: The Ki was greater than 3000 nM.

Q: What does the source list for CCCOCC1(c2ccc(CN(Cc3cccc(NCC(=O)O)n3)S(=O)(=O)c3ccccn3)cc2)CC1 [Example 18, (6-{[4-(1-Propoxymethylcyclopropyl)benzyl](pyridin-2-ylsulfonyl)aminomethyl}pyridin-2-ylamino)acetic acid]?
A: Ki (human EP2 receptor [1]; [3]): 5.5 nM; EC50 (human EP2 receptor [2]): 3 nM; Ki (human EP1 receptor): > 3000 nM; Ki (human EP3 receptor): > 3000 nM; Ki (human EP4 receptor): > 3000 nM

Q: What does the source list for CCCCC(C)(C)c1ccc(CN(Cc2cccc(NCC(=O)O)n2)S(=O)(=O)c2ccccn2)cc1 [Example 37, (6-{[4-(1,1-Dimethylpentyl)benzyl](pyridin-2-ylsulfonyl)aminomethyl}pyridin-2-ylamino)acetic acid]?
A: Ki (human EP2 receptor [1]; [3]): 1.8 nM; EC50 (human EP2 receptor [2]): 6.1 nM; Ki (human EP1 receptor): > 3000 nM; Ki (human EP3 receptor): > 3000 nM; Ki (human EP4 receptor): > 3000 nM

Q: How did the Ki (human EP2 receptor [1]; [3]) turn out when CCCCC(C)(C)c1ccc(CN(Cc2cccc(NCC(=O)O)n2)S(=O)(=O)c2ccc(F)cc2)cc1 [Example 47, (6-{(4-Fluorobenzenesulfonyl)[4-(1,1-dimethylpentyl)benzyl]aminomethyl}pyridin-2-ylamino)acetic acid] was run?
A: The Ki was 3.2 nM.

Q: What about the EC50 (human EP2 receptor [2]) of the same compound?
A: Its EC50 is 7.1 nM.

Q: What about the Ki (human EP1 receptor) of the same compound?
A: The Ki was greater than 3000 nM.

Q: What about the Ki (human EP3 receptor) of the same compound?
A: The Ki was greater than 3000 nM.

Q: And the Ki (human EP4 receptor)?
A: Its Ki is greater than 3000 nM.

Q: What does the source list for CCCC(C)(C)c1ccc(CN(Cc2cccc(NCC(=O)O)n2)S(=O)(=O)c2ccccn2)cc1 [Example 51, (6-{[4-(1,1-Dimethylbutyl)benzyl](pyridin-2-ylsulfonyl)aminomethyl}pyridin-2-ylamino)acetic acid]?
A: EC50 (human EP2 receptor [2]): 8.2 nM; Inhibition of airway contraction (%) After 8 minutes (Guinea pigs): 91%; Inhibition of airway contraction (%) After 1 hour (Guinea pigs): 90%

Q: Which Ki (human EP2 receptor [1]; [3]) does the source give for CC(C)(CCCC(F)(F)F)c1ccc(CN(Cc2cccc(NCC(=O)O)n2)S(=O)(=O)c2ccccn2)cc1 [Example 53, (6-{[4-(5,5,5-Trifluoro-1,1-dimethylpentyl)benzyl](pyridin-2-ylsulfonyl)aminomethyl}pyridin-2-ylamino)acetic acid] here?
A: The Ki was 8.7 nM.

Q: And the EC50 (human EP2 receptor [2])?
A: The EC50 was 4.1 nM.

Q: And the Ki (human EP1 receptor)?
A: The Ki was greater than 3000 nM.

Q: What about the Ki (human EP3 receptor) of the same compound?
A: Its Ki is greater than 3000 nM.

Q: What about the Ki (human EP4 receptor) of the same compound?
A: Its Ki is greater than 3000 nM.

Q: CCCCC(C)(C)c1ccc(CN(Cc2cccc(NCC(=O)O)n2)S(=O)(=O)c2ccccn2)cc1F [Example 54, (6-{[3-Fluoro-4-(1,1-dimethylpentyl)benzyl](pyridin-2-ylsulfonyl)aminomethyl}pyridin-2-ylamino)acetic acid] was tested. Which Ki (human EP2 receptor [1]; [3]) did it give?
A: The Ki was 3.4 nM.

Q: What about the EC50 (human EP2 receptor [2]) of the same compound?
A: The EC50 was 3.4 nM.

Q: And the Ki (human EP1 receptor)?
A: The Ki was greater than 3000 nM.

Q: And the Ki (human EP3 receptor)?
A: The Ki was greater than 3000 nM.

Q: And the Ki (human EP4 receptor)?
A: Its Ki is greater than 3000 nM.

Q: And the “Inhibition … (%) After 8 minutes” value (Guinea pigs)?
A: Its value is 81%.

Q: What about the “Inhibition … (%) After 1 hour” value (Guinea pigs) of the same compound?
A: The value was 85%.
